From US20100104518A1, “CHEWING GUM, CONFECTION, AND OTHER ORAL DELIVERY VEHICLES CONTAINING A TRADITIONAL CHINESE MEDICINE OR EXTRACT THEREOF” (priority 2006, published 2010)

Columns and labels:
Format in all cases: cell-based
F. nucleatum [1] = experiment: Minimum Bactericidal Concentration (MBC) test of TCM extracts on oral bacteria; conditions: transfer from non-turbid tubes to fresh growth media, 48 hrs
Protocol: (§1) To evaluate the germ-kill efficacy, the dried crude TCM bark, stem, leaf or root was ground to powder. 10-50 grams of TCM powder was mixed with 100 ml of ethanol. The mixture was super-sonicated for 10-15 minutes to extract the TCM actives. The mixture was further transferred into a Mixxor solid-liquid phase extractor for extracting about 50 strokes. The solution was filtered by a 0.45 um Millipore filter. For determination of the TCM extract concentration, slight amount of TCM extract sample was accurately weighed on a pre-weighed aluminum weighing dish. It was dried in a 45° C. oven for 2 hours to evaporate ethanol. The sample dish was weighed again, and the concentration of TCM extract was determined as: conc.=(Dry weight−dish weight)/(wet weight−dish weight)×100%.
(§2) The germ-kill efficacy was determined by a Minimum Inhibitive Concentration test (MIC) and a Minimum Bactericidal Concentration (MBC) test. […] The solution was then serially diluted two-fold so that each subsequent dilution contained 50% of the compound concentration of the previous dilution while maintaining a constant level of nutrients for each dilution. These dilutions were inoculated with representative oral microorganisms, and incubated for 24 hrs at 37° C. For each TCM compound, the lowest dilution that was not turbid was registered as the MIC. The MBC was determined by transferring […] of liquid from no-turbid tubes to fresh growth media and incubated for 48 hrs. […] Table A & B list the MIC and MBC data on P. gingivalis, F. nucleatum and S. nutans.

S. mutans [2] = experiment: as above; conditions: transfer from non-turbid tubes to fresh growth media, 48 hrs
Protocol: as §1, §2

P. gingivalis [3] = experiment: as above; conditions: transfer from non-turbid tubes to fresh growth media, 48 hrs
Protocol: as §1, §2

F. nucleatum [4] = experiment: Minimum Inhibitive Concentration test (MIC) of TCM extracts on oral bacteria; conditions: ethanol TCM extract; Schaedler broth, two-fold dilutions, 24 hrs at 37° C.
Protocol: as §1, §2

S. mutans [5] = experiment: as above; conditions: ethanol TCM extract; Schaedler broth, two-fold dilutions, 24 hrs at 37° C.
Protocol: as §1, §2

P. gingivalis [6] = experiment: as above; conditions: ethanol TCM extract; Schaedler broth, two-fold dilutions, 24 hrs at 37° C.
Protocol: as §1, §2

## N=C(NCCCCCCNC(=N)NC(=N)Nc1ccc(Cl)cc1)NC(=N)Nc1ccc(Cl)cc1.O=C(O)[C@H](O)[C@@H](O)[C@H](O)[C@H](O)CO.O=C(O)[C@H](O)[C@@H](O)[C@H](O)[C@H](O)CO [Chlorohexdine Gluconate]
F. nucleatum [1]
  MBC F. nucleatum: 10 ng/mL
S. mutans [2]
  MBC S. mutans: 10 ng/mL
P. gingivalis [3]
  MBC P. gingivalis: 5 ng/mL
F. nucleatum [4]
  MIC F. nucleatum: 5 ng/mL
S. mutans [5]
  MIC S. mutans: 5 ng/mL
P. gingivalis [6]
  MIC P. gingivalis: 2.5 ng/mL
